Measurements published in patent EP0241134B1, “Pharmaceutical mixture comprising nedocromil or a salt thereof in combination with a bronchodilator” (FISONS plc, priority 1986, dated 1987).

System: acetyl choline or histamine induced bronchospasm
Assay: Duration of action: inhibition of acetyl choline or histamine induced bronchospasm by equiactive i.v. doses
Assay type: in vivo
Conditions: anaesthetised guinea-pigs
Description: We prefer the B₂ selective bronchodilator to be long acting. By the term 'long acting' we mean that the compound has a longer duration of action as a relaxant of bronchial smooth muscle in pharmacological tests than does isoprenaline or orciprenaline. For duration of action studies, a comparison is made of the effect of equiactive i.v. doses as inhibitors of acetyl choline or histamine induced bronchospasm in anaesthetised guinea-pigs. The duration of action of isoprenaline in such a test is relatively short (control response back to normal in 10 to 25 minutes). In the case of a compound with a longer duration of action, the control response would only return to normal over a several-fold longer period of time.

For `CC(C)NCC(O)c1ccc(O)c(O)c1` (stereo not shown) [isoprenaline], the “duration of action (control response back to normal)” value was 10 to 25 min.
